“And” between values parts separate entries of the source, which are not always exact repeats. Equal values may be shown once.
Species on record: Rattus norvegicus
Assay: Open TG-GATES - Regimen: Single
Format: toxicity, organism-based, Sprague-Dawley
Parameters: regimen Single, gender Male, age 6 weeks
Conditions: in vivo, po, route gavage; for LIVER: tissue Liver; for ALP / ALT / AST / BUN / CRE / Ca / Cl / GLC / IP / K / LDH / Na / PL / RALB / TC / TP / gamma-GTP / DBIL / TBIL: tissue Plasma; for APTT / Bas / Eos / Fbg / Hb / Ht / Lym / MCH / MCHC / MCV / Mono / Neu / PT / Plat / RBC / Ret / WBC: tissue Blood; for KIDNEY_L / KIDNEY_R / KIDNEY_TOTAL: tissue Kidney
[1] = 0 mg/kg, 24 h, dose level Control

## O=P1(N(CCCl)CCCl)NCCCO1 (stereo unspecified) [CYCLOPHOSPHAMIDE ANHYDROUS]
[1]
  LIVER: 9.8 g and 8.7 g
  ALP: 1816 IU/L and 1543.8 IU/L
  ALT: 45.6 IU/L and 38 IU/L
  AST: 71.2 IU/L and 71.6 IU/L
  BUN: 16.4 mg/dL and 13.6 mg/dL
  CRE: 0.2 mg/dL
  Ca: 10.7 mg/dL and 11.1 mg/dL
  Cl: 104.8 meq/L and 105.8 meq/L
  GLC: 189.6 mg/dL and 178.8 mg/dL
  IP: 7.3 mg/dL and 7.8 mg/dL
  K: 4.4 meq/L
  LDH: 192.2 IU/L and 79 IU/L
  Na: 142.6 meq/L and 141 meq/L
  PL: 161.6 mg/dL and 160.8 mg/dL
  RALB: 2.9 g/dL and 2.6 g/dL
  TC: 82 mg/dL and 82.6 mg/dL
  TP: 5.4 g/dL and 5.6 g/dL
  gamma-GTP: 1.2 IU/L
2 mg/kg, 3 h, dose level Low
  TERMINAL_BW: 191.9 g
  APTT: 22.6 s
  Bas: 0%
  Eos: 0.4%
  Fbg: 284.6 mg/dL
  Hb: 13.1 g/dL
  Ht: 39.2%
  Lym: 85.4%
  MCH: 21.8 pg
  MCHC: 33.3%
  MCV: 65.4 fL
  Mono: 1.4%
  Neu: 12.4%
  PT: 15.9 s
  Plat: 119.4 x10_4/uL
  RBC: 600.4 x10_4/ul
  Ret: 8.8%
  WBC: 81 x10_2/uL
  KIDNEY_L: 0.9 g
  KIDNEY_R: 0.9 g
  KIDNEY_TOTAL: 1.8 g
  LIVER: 9 g
  ALP: 1623.4 IU/L
  ALT: 42.2 IU/L
  AST: 73.4 IU/L
  BUN: 12.4 mg/dL
  CRE: 0.1 mg/dL
  Ca: 10.8 mg/dL
  Cl: 107.2 meq/L
  DBIL: 0 mg/dL
  GLC: 190 mg/dL
  IP: 7.9 mg/dL
  K: 4.1 meq/L
  LDH: 181.4 IU/L
  Na: 144 meq/L
  PL: 119.2 mg/dL
  RALB: 2.9 g/dL
  TBIL: 0.022 mg/dL
  TC: 64.4 mg/dL
  TP: 5.2 g/dL
  gamma-GTP: 1 IU/L
2 mg/kg, 6 h, dose level Low
  TERMINAL_BW: 187.4 g
  APTT: 21.7 s
  Bas: 0%
  Eos: 0.8%
  Fbg: 301.4 mg/dL
  Hb: 13.1 g/dL
  Ht: 39.4%
  Lym: 76.2%
  MCH: 21.4 pg
  MCHC: 33.4%
  MCV: 64.2 fL
  Mono: 2.2%
  Neu: 20.2%
  PT: 16 s
  Plat: 121.6 x10_4/uL
  RBC: 613.6 x10_4/ul
  Ret: 8.5%
  WBC: 94.5 x10_2/uL
  KIDNEY_L: 0.9 g
  KIDNEY_R: 0.9 g
  KIDNEY_TOTAL: 1.7 g
  LIVER: 8 g
  ALP: 1350.2 IU/L
  ALT: 39.2 IU/L
  AST: 69.2 IU/L
  BUN: 10.2 mg/dL
  CRE: 0.1 mg/dL
  Ca: 10.6 mg/dL
  Cl: 106.8 meq/L
  DBIL: 0 mg/dL
  GLC: 184.8 mg/dL
  IP: 9.4 mg/dL
  K: 4.4 meq/L
  LDH: 195.2 IU/L
  Na: 142.8 meq/L
  PL: 136.8 mg/dL
  RALB: 2.9 g/dL
  TBIL: 0.032 mg/dL
  TC: 78.2 mg/dL
  TP: 5.3 g/dL
  gamma-GTP: 1.2 IU/L
2 mg/kg, 9 h, dose level Low
  TERMINAL_BW: 193.9 g
  APTT: 20.9 s
  Bas: 0%
  Eos: 0.6%
  Fbg: 312.6 mg/dL
  Hb: 12.9 g/dL
  Ht: 38.9%
  Lym: 76.4%
  MCH: 21.2 pg
  MCHC: 33.1%
  MCV: 64.1 fL
  Mono: 1.6%
  Neu: 20.6%
  PT: 16.1 s
  Plat: 120.1 x10_4/uL
  RBC: 607.2 x10_4/ul
  Ret: 8.3%
  WBC: 83.5 x10_2/uL
  KIDNEY_L: 0.9 g
  KIDNEY_R: 0.9 g
  KIDNEY_TOTAL: 1.8 g
  LIVER: 8.3 g
  ALP: 1429.8 IU/L
  ALT: 36.4 IU/L
  AST: 69 IU/L
  BUN: 10.2 mg/dL
  CRE: 0.2 mg/dL
  Ca: 10.7 mg/dL
  Cl: 106.4 meq/L
  DBIL: 0 mg/dL
  GLC: 179.2 mg/dL
  IP: 10.1 mg/dL
  K: 4 meq/L
  LDH: 221 IU/L
  Na: 143.4 meq/L
  PL: 142.4 mg/dL
  RALB: 3.1 g/dL
  TBIL: 0.036 mg/dL
  TC: 81.2 mg/dL
  TP: 5.4 g/dL
  gamma-GTP: 1 IU/L

From ChEMBL document CHEMBL3885861, “Open TG-GATES”
